Measured values from US20100120703A1, “COMPOSITIONS AND METHODS FOR TREATING CANCER” (priority 2007, published 2010).

What was measured:
human colon cancer cells = conditions: cited from earlier work
Sprague Dawley (SD) rats = assay: Serum AST/ALT assay, promotion stage; assay type: in vivo, rat; conditions: promotion stage (FIG. 10), 15 mg/kg oral daily
Excerpt: In the promotion stage experiment, rats in the negative control group received weekly intraperitoneal (i.p.) injection of DMSO for the first 2 weeks and then Corn Oil for the rest of the schedule. Rats in the positive control and SIN-treatment groups both received weekly intraperitoneal (i.p.) injection of the carcinogen DEN for the first 2 weeks and then promoter, Carbon Tetrachloride (CCl4) for the rest of the schedule. Two weeks of fasting were inserted between the initiator carcinogen treatment and the promoter CCl4 treatment. During the fasting period of 2 weeks, rats were fasted for 5 days, followed by a 2 day feeding, and another 5 days of fasting. Water was given ad libitum. Negative and positive control groups received oral treatment of water once a day after fasting. Sinigrin with dosage 15 mg/kg was administered orally to the treatment group daily for 28 weeks after fasting. […]
The serum AST activity assay was measured by a Stanbio AST (UV-Rate) kit. […] Absorbance was measured at OD 340 nm. After incubation for 1 minute, a reading was taken and the reading at this point was counted as time zero. Readings were then taken at 30 second interval for 3 minutes. The change of absorbance per minute was calculated and the AST activity was calculated by the formula
The ALT assay was measured by a Stanbio […]. […]

HepG2 cells = assay: Neutral red cell viability assay; assay type: cell-based; conditions: Homo sapiens
Excerpt: The neutral red (NR) cytotoxicity assay is a chemosensitivity assay for measuring cell survival/viability, based on the ability of viable cells to incorporate and bind neutral red, a supravital dye. NR is a weak cationic dye that readily penetrates cell membranes by non-ionic diffusion, accumulating intracellularly in lysosomes, where it binds with anionic sites in the lysosomal matrix. Alterations of the cell surface or the sensitive lysosomal membrane lead to lysosomal fragility and other changes that gradually become irreversible. Such changes brought about by the action of xenobiotics result in a decreased uptake and binding of NR. It is thus possible to distinguish between viable, damaged, or dead cells. (Babich, H et al, 1990)
Three different cell lines HepG2, WRL-68 and Clone 9 cell lines were used in the experiment. HepG2 is a human hepatoblastoma cell line. It is a well known cell model in anti-HCC studies (Alshatwi A A, et al, 2006). WRL-68 is a human normal liver embryo cell line that has a morphologic structure similar to hepatocytes and hepatic primary cultures (Gutierrez-Ruiz, et al, 1994). This cell line was used as the control. Clone 9 is the rat Sprague Dawley (SD) liver normal cell line. In the in vivo studies, sinigrin (SIN) would be applied to the SD rat animal model. The employment of this cell line in the cell viability study was to test if SIN would be toxic in the rat animal model.
HepG2, WRL-68 and Clone 9 cells were grown in complete culture medium (RPMI or DMEM), trypsinized and washed. Ten thousand cells of each cell type were seeded in 96-well plates. After 24 hours of pre-incubation, cells were treated with different concentrations of SIN and incubated for 72 hours. After incubation, cells were harvested and washed twice with 1×PBS buffer. Fifty microliters of Neutral Red solution were added to each well. The whole plate was placed into an incubator at 37° C. with 5% CO2. After incubation for 1 hour, the plate was washed twice with 1×PBS buffer, and completely dried in a 60° C. oven overnight. […] The color was measured at OD540nm.

[1] = HepG2, 72 h, read-out: viability of HepG2 cells

SMILES: C=CC/C(=N/OS(=O)(=O)[O-])S[C@@H]1OC(CO)[C@@H](O)C(O)C1O.[K+] (stereo partly drawn) [SIN, sinigrin]
- action on apoptosis and cell proliferation (human colon cancer cells): might be apoptosis- and cell proliferation-independent
- rat serum ALT level (Sprague Dawley (SD) rats): levels similar to those in the negative control
- rat serum AST level (Sprague Dawley (SD) rats): levels similar to those in the negative control
- viability at 25 µM (HepG2 cells; [1]): ~70%
- viability at 1000 µM (HepG2 cells; [1]): ~35%
- IC50 (HepG2 cells; HepG2, 72 hours, neutral red): < 250 µM
